{"source": "patent US7947312B2", "about": "“Method of preparation and composition of a water soluble extract of the bioactive component of the plant species Uncaria for enhancing immune, anti-inflammatory, anti-tumor and DNA repair processes of warm blooded animals” (priority 2002, dated 2011)", "key": {"[1]": {"system": "HL-60 human leukemic cells", "assay": "In vitro cytotoxicity in HL-60 cells, MTT assay (Table 2)", "type": "cell-based", "settings": "Homo sapiens, HL-60; no base hydrolysis", "procedure": "In Table 2, the in vitro cytotoxicity of the various components were determined in HL-60 human leukemic cells using the MTT assay and calculation of IC50 values as described in detail elsewhere. Quinic acid ester content was determined by the Bartos method (Bartos, 1980). […] The quinic acid traveling between Rf=0.2-0.3 was eluted from the TLC plates with 1% aqueous ammonia and the relative quantity estimated by absorption at 200 nm as ± being less than 0.050 and “++++” denoting the highest amount detected, with a decrease in the number of “+” signs corresponding to a decrease in the amount of QA detected."}, "[2]": {"system": "human HL-60 leukemic cells", "assay": "In vitro growth inhibition by QA salts in cultured HL-60 cells, MTT, 72 hr (FIG. 8)", "type": "cell-based", "settings": "for in vitro cytotoxicity compared to C-MED-100 (FIG. 8): HL-60 cells", "procedure": "QA was purchased from Sigma (>99%). QA salts were synthesized by neutralization with the appropriate base, i.e., NH4OH, NaOH, Ca(OH)2, Zn(OH)2, LiOH, KOH, lysine or histidine. Serial dilutions of test compounds were added to human HL-60 leukemic cells (0.05×10^6 cells/ml) in 96-well, flat bottomed microtiter plates to give final concentrations in the cultures up to 3000 μg/ml. The plates were incubated for 72 hr at 37 C, pulsed with 20 μl MTT (5 mg/ml) for 3 hr, and the color estimated spectrophotometrically at 540 nm as described previously. (Schweitzer, C M et al. Spectrophotometric determination of clonogenic capacity of leukemic cells in semisolid microtiter culture systems. Experimental Hematology 21: 573-578, 1993). IC50 values were calculated and compared based on the live/dead ratio of cells."}, "NF-κB": {"system": "NF-κB", "assay": "NF-κB reporter (luciferase) in transfected Jurkat T cells", "type": "cell-based, human", "settings": "PMA 50 ng/ml and ionomycin 1 μM, 2 h pre-culture, 6 h stimulation", "procedure": "FIG. 5A illustrates Jurkat T that are cells transfected with a NF-κB reporter construct were pre-cultured with various concentrations of QA or C-MED-100® for two hours. PMA (50 ng/ml) and ionomycin (1 μM) were thereafter added and the cells incubated for another six hours. The mean induction of luciferase activity in triplicate cultures from one representative experiment out of four are shown (left panel). QA induced no cell death or apoptosis in Jurkat T cells at concentrations which inhibited NF-κB activity. Jurkat T cells were incubated with various concentrations of QA for 24 hours and thereafter stained with Annexin V and 7AAD before analysis by flow cytometry. The data are the mean values±S.D. of triplicates from one representative experiment out of two performed (right panel). Transient transfection and analysis of luciferase activity: The reporter construct containing NF-κB binding sequences and the luciferase reporter gene was previously described. […] The cells were lysed and aliquots of the lysates analyzed for luciferase activity using the Luciferase Assay System (Promega, Madison, Wis.). Luminiscence was quantitated in a MicroLumat LB 96 P luminometer (EG&G Berthold, Wallac […], Upplands Väsby, Sweden)."}, "[3]": {"system": "Raji human Burkitt's lymphoma", "assay": "Raji cell proliferation (Coulter count, trypan blue)", "type": "cell-based", "settings": "48 hours", "procedure": "FIG. 3A illustrates Raji cells (2×10^5) that were cultured in the presence of indicated concentrations of C-MED-100®, QAA or QA. Growth rate was assayed after 48 hours by counting triplicate samples of duplicate cultures in a Coulter cell counter. Results from one representative experiment out of two performed is presented as mean values of cell/ml±standard deviation (S.D).\nFIG. 3B illustrates triplicate samples of cells from duplicate parallel cultures stained with trypan blue at indicated times and counted.\n(§1) Cell cultures: Raji human Burkitt's lymphoma (CCL-86), Jurkat human acute T-cell leukemia (TIB-152), 70Z/3 mouse pre-B lymphocyte cell line (TIB-158), or mouse spleen cells were used in the experiments. The cells were cultured in RPMI medium (Life Technologies) supplemented with 10% FCS, 10 mM HEPES buffer, antibiotics, 50 μM 2-mercaptoethanol and 1 mM sodium pyruvate (all supplements from Life Technologies) at 37° C., 5% CO2. The number of Raji cells in duplicate cultures were determined with a Coulter Z1 cell counter (Beckman Coulter Inc, Fullerton, Calif., USA) three times each. The number of viable and dead cells were determined using trypan blue exclusion, by counting three independent samples from duplicate cultures. […] Proliferation was detected by measuring thymidine incorporation after a 4 hours pulse with 1 μCi ^3[H]-thymidine (Amersham Pharmacia)."}, "mouse spleen cells": {"system": "mouse spleen cells", "type": "cell-based", "settings": "for fraction of apoptotic T cells: Con A stimulated cultures (FIG. 4B); for induction of cell death in mitogen-stimulated spleen cells: mouse", "excerpt": "Cells from parallel cultures were stained with trypan blue and the mean absolute number of viable and dead cells/ml from one out of three similar experiments are shown. […] Aliquots of the above cultures were stained with Annexin V and 7AAD and analyzed by flow cytometry. The results are presented as the mean number of Annexin V^+7AAD^− (apoptotic) and 7AAD^+ (dead) cells/ml±S.D. of duplicates from three experiments with similar results. Statistically significant differences (*p<0.05) and (**p<0.01) compared to the control cultures stimulated with Con A (FIG. 4B) or LPS (FIG. 4C) alone.\nCell cultures: Raji human Burkitt's lymphoma (CCL-86), Jurkat human acute T-cell leukemia (TIB-152), 70Z/3 mouse pre-B lymphocyte cell line (TIB-158), or mouse spleen cells were used in the experiments. The cells were cultured in RPMI medium (Life Technologies) supplemented with 10% FCS, 10 mM HEPES buffer, antibiotics, 50 μM 2-mercaptoethanol and 1 mM sodium pyruvate (all supplements from Life Technologies) at 37° C., 5% CO2. The number of Raji cells in duplicate cultures were determined with a Coulter Z1 cell counter (Beckman Coulter Inc, Fullerton, Calif., USA) three times each. The number of viable and dead cells were determined using trypan blue exclusion, by counting three independent samples from duplicate cultures. Cells were stained with 2 μg/ml 7-amino-actinomycin D (7AAD; Sigma-Aldrich, St Louis, Mo., USA) and with Annexin V (Molecular Probes) according to the manufacturer's protocol and the cells were defined as apoptotic (Annexin V+7AAD^−) or dead (7AAD^+) by flow cytometry. Spleen cells were polyclonally activated with 2.5 μg/ml concanavalin A (Con A; Amersham Pharmacia, Uppsala, Sweden) or 10 μg/ml lipopolysaccharide (LPS; Sigma-Aldrich). PMA (50 ng/ml) and ionomycin (1 μM) (both from Sigma-Aldrich) and pyrollidine dithiocarbamate (PDTC) (100 μM, EMD Bioscience Inc, Calbiochem, San Diego, Calif., USA) were used in some cultures as indicated. Proliferation was detected by measuring thymidine incorporation after a 4 hours pulse with 1 μCi ^3[H]-thymidine (Amersham Pharmacia)."}, "Raji cells": {"system": "Raji cells", "assay": "Raji cell death and apoptosis (Annexin V / 7AAD flow cytometry)", "type": "cell-based, human", "excerpt": "Cells from the same cultures as in FIG. 3B were stained with Annexin V and 7AAD and analyzed by flow cytometry. The results are presented as the mean number of Annexin V^+ 7AAD^− (apoptotic) or 7AAD^+ (dead) cells±S.D. of duplicates from three experiments with similar results. Statistically significant differences (*p<0.05) and (**p<0.01), compared to Raji cells grown in medium (no drug).\nas §1"}}, "note": "Counter-ions that a name gives are not always drawn."}
{"smiles": "O=C(O)[C@]1(O)C[C@@H](O)[C@@H](O)[C@H](O)C1", "note": "[QAA, quinic acid ammonium salt]", "values": [{"measurement": "IC50", "setting": "[1]", "value": 500, "unit": "µg/mL"}, {"measurement": "in vitro cytotoxicity compared to C-MED-100 (FIG. 8)", "setting": "[2]", "value": "in vitro cytotoxicity comparable to that of C-MED-100®"}, {"measurement": "IC50", "setting": "[2]; Homo sapiens, HL-60", "value": "≤ 1100", "unit": "µg/mL"}, {"measurement": "NF-κB activity (luciferase reporter)", "setting": "NF-κB", "value": "inhibited the NF-κB activity to a similar extent as QA"}, {"measurement": "Raji cell proliferation", "setting": "[3]", "value": "inhibited cell proliferation in a dose dependent manner"}, {"measurement": "fraction of apoptotic T cells", "setting": "mouse spleen cells", "value": "significantly reduced the fraction of apoptotic T cells"}, {"measurement": "induction of cell death in mitogen-stimulated spleen cells", "setting": "mouse spleen cells", "value": "neither C-MED-100®, QAA nor QA induce cell death"}, {"measurement": "induction of cell death in Raji cells", "setting": "Raji cells", "value": "do not induce cell death"}]}
{"smiles": "O=C(O)C1(O)CC(O)C(O)C(O)C1", "note": "(stereo not drawn) [QA, 1,3,4,5-tetrahydroxy-cyclohexanecarboxylic acid]", "values": [{"measurement": "IC50", "setting": "[1]", "value": "> 2300", "unit": "µg/mL"}, {"measurement": "in vitro cytotoxicity compared to C-MED-100 (FIG. 8)", "setting": "[2]", "value": "much greater in vitro cytotoxicity than does C-MED-100®"}, {"measurement": "NF-κB activity (luciferase reporter)", "setting": "NF-κB", "value": "in a dose dependent manner, inhibited the NF-κB activity"}, {"measurement": "Raji cell proliferation", "setting": "[3]", "value": "neither inhibited the proliferation of Raji tumor cells"}, {"measurement": "fraction of apoptotic T cells", "setting": "mouse spleen cells", "value": "tendency to reduction (p=0.053)"}, {"measurement": "induction of cell death in mitogen-stimulated spleen cells", "setting": "mouse spleen cells", "value": "neither C-MED-100®, QAA nor QA induce cell death"}, {"measurement": "induction of cell death in Raji cells", "setting": "Raji cells", "value": "do not induce cell death"}]}
